# In US8450332B2, “LIMK2 inhibitors, compositions comprising them, and methods of their use” (Lexicon Pharmaceuticals, Inc., priority 2008, dated 2013):
# pIC50: −log10 of the molar value.
# Target: T1, LIMK2 (Homo sapiens, UniProt P53671)
# T1 construct: His tag (histidine-tagged; pFastBacHT vector); made in house; host or cells: Sf9 insect cells (BAC-to-BAC baculovirus system)
# Test: In vitro LIMK2 inhibition assay (33P incorporation into myelin basic protein flash plates)
# Assay type: biochemical
# Method: Using the procedures described herein and methods known in the art, the additional compounds listed below in Table 1 were prepared. The LIMK2 IC50 data that is provided below for some of the compounds was determined using the assay described in Example 32.
# An in vitro assay used to identify LIMK2 inhibitors was developed. The analytical readout was the incorporation of ^33P from ATP substrate into immobilized myelin basic protein coated flash plates (Perkin Elmer Biosciences), which were counted on a scintillation counter equipped with a plate reader (TopCount, Packard Bioscience, Meriden, Conn.). Using 384 well flat MBP flashplates, total assay volume was 50 μl. The HTS program utilized a Biomek FX for dilution.
# For each assay, the ingredients and conditions were as follows: 200 ng of enzyme was incubated in assay buffer (1× assay buffer contains 30 mM HEPES (pH 8.0), 5 mM DTT, and 10 mM MgCl2), 10 μM ATP, 0.2 μCi [gamma-^33P]-ATP and 10 μM of potential inhibitory compound. The reaction was incubated at room temperature for 60 minutes, washed 3 times with 75 μl of stop/wash buffer (1× stop/was buffer contains 50 mM EDTA and 20 mM Tris (pH 7.4)), and then the plates were read on the scintillation counter. Different concentrations of staurosporine (400 nM, 200 nM, 100 nM and 50 nM; purchased from BIOMOL (Plymouth Meeting, Pa.)) were used as controls on each plate.
# T1 sequence (P53671 whole entry): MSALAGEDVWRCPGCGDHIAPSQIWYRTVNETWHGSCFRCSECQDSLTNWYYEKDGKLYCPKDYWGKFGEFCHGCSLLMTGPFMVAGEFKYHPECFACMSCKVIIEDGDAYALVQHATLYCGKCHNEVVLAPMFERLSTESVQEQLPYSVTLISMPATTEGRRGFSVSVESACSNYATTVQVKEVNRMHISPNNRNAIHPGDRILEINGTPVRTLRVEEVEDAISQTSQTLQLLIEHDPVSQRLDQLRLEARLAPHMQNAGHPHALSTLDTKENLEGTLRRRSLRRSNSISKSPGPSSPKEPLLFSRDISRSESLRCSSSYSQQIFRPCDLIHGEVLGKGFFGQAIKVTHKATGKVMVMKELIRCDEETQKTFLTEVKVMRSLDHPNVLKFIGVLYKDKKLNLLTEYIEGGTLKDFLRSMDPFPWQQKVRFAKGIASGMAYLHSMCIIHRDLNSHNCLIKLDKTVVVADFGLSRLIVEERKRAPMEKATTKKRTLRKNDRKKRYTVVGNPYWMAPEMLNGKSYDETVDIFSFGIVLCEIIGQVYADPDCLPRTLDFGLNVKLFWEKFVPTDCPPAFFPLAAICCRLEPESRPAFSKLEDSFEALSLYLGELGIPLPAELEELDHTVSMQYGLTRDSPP
row,Compound,pIC50
1,"Cc1c[nH]c2ncnc(N3CCC(CCN4CCOCC4)(C(=O)Nc4cccc(OC(=O)N(C)C)c4)CC3)c12 [3-(1-(5-methyl-7H-pyrrolo[2,3-d]pyrimidin-4-yl)-4-(2-morpholinoethyl)piperidine-4-carboxamido)phenyl dimethylcarbamate]",> 6.60
2,"Cc1c[nH]c2ncnc(N3CCC(C(=O)Nc4cccc(OC(=O)N(C)C)c4)(c4nn[nH]n4)CC3)c12 [3-(1-(5-methyl-7H-pyrrolo[2,3-d]pyrimidin-4-yl)-4-(2H-tetrazol-5-yl)piperidine-4-carboxamido)phenyl dimethylcarbamate]",> 6.60
3,"Cc1c[nH]c2ncnc(N3CCC(CNC(=O)N4CCOCC4)(C(=O)Nc4cccc(OC(=O)N(C)C)c4)CC3)c12 [3-(1-(5-methyl-7H-pyrrolo[2,3-d]pyrimidin-4-yl)-4-((morpholine-4-carboxamido)methyl)piperidine-4-carboxamido)phenyl dimethylcarbamate]",> 6.60
4,"Cc1c[nH]c2ncnc(N3CCC(CNS(N)(=O)=O)(C(=O)Nc4cccc(OC(=O)N(C)C)c4)CC3)c12 [3-(1-(5-methyl-7H-pyrrolo[2,3-d]pyrimidin-4-yl)-4-((sulfamoylamino)methyl)piperidine-4-carboxamido)phenyl dimethylcarbamate]",> 6.60
5,"Cc1c[nH]c2ncnc(N3CCC(CNS(C)(=O)=O)(C(=O)Nc4cccc(OC(=O)N(C)C)c4)CC3)c12 [3-(1-(5-methyl-7H-pyrrolo[2,3-d]pyrimidin-4-yl)-4-(methylsulfonamidomethyl)piperidine-4-carboxamido)phenyl dimethylcarbamate]",> 6.60
6,"Cc1c[nH]c2ncnc(N3CCC(CN4CCOCC4)(C(=O)Nc4cccc(OC(=O)N(C)C)c4)CC3)c12 [3-(1-(5-methyl-7H-pyrrolo[2,3-d]pyrimidin-4-yl)-4-(morpholinomethyl)piperidine-4-carboxamido)phenyl dimethylcarbamate]",> 6.60
7,"Cc1c[nH]c2ncnc(N3CCC(CNC(N)=O)(C(=O)Nc4cccc(OC(=O)N(C)C)c4)CC3)c12 [3-(1-(5-methyl-7H-pyrrolo[2,3-d]pyrimidin-4-yl)-4-(ureidomethyl)piperidine-4-carboxamido)phenyl dimethylcarbamate]",> 6.60
8,"CCCC1(C(=O)Nc2cccc(OC(=O)N(C)C)c2)CCN(c2ncnc3[nH]cc(C)c23)CC1 [3-(1-(5-methyl-7H-pyrrolo[2,3-d]pyrimidin-4-yl)-4-propylpiperidine-4-carboxamido)phenyl dimethylcarbamate]",> 6.60
9,"Cc1c[nH]c2ncnc(N3CCC(NCCOCc4ccccc4)(C(=O)Nc4cccc(OC(=O)N(C)C)c4)CC3)c12 [3-(4-(2-(benzyloxy)ethylamino)-1-(5-methyl-7H-pyrrolo[2,3-d]pyrimidin-4-yl)piperidine-4-carboxamido)phenyl dimethylcarbamate]",> 6.60
10,"Cc1c[nH]c2ncnc(N3CCC(NCCNC(=O)OC(C)(C)C)(C(=O)Nc4cccc(OC(=O)N(C)C)c4)CC3)c12 [3-(4-(2-(tert-butoxycarbonylamino)ethylamino)-1-(5-methyl-7H-pyrrolo[2,3-d]pyrimidin-4-yl)piperidine-4-carboxamido)phenyl dimethylcarbamate]",> 6.60
11,"Cc1c[nH]c2ncnc(N3CCC(NCCN)(C(=O)Nc4cccc(OC(=O)N(C)C)c4)CC3)c12 [3-(4-(2-aminoethylamino)-1-(5-methyl-7H-pyrrolo[2,3-d]pyrimidin-4-yl)piperidine-4-carboxamido)phenyl dimethylcarbamate]",> 6.60
12,"Cc1c[nH]c2ncnc(N3CCC(NCCO)(C(=O)Nc4cccc(OC(=O)N(C)C)c4)CC3)c12 [3-(4-(2-hydroxyethylamino)-1-(5-methyl-7H-pyrrolo[2,3-d]pyrimidin-4-yl)piperidine-4-carboxamido)phenyl dimethylcarbamate]",> 6.60
13,"Cc1c[nH]c2ncnc(N3CCC(CNC(=O)C4(N)CC4)(C(=O)Nc4cccc(OC(=O)N(C)C)c4)CC3)c12 [3-(4-((1-aminocyclopropanecarboxamido)methyl)-1-(5-methyl-7H-pyrrolo[2,3-d]pyrimidin-4-yl)piperidine-4-carboxamido)phenyl dimethylcarbamate]",> 6.60
14,"Cc1c[nH]c2ncnc(N3CCC(CNC(=O)c4cnn(C)c4)(C(=O)Nc4cccc(OC(=O)N(C)C)c4)CC3)c12 [3-(4-((1-methyl-1H-pyrazole-4-carboxamido)methyl)-1-(5-methyl-7H-pyrrolo[2,3-d]pyrimidin-4-yl)piperidine-4-carboxamido)phenyl dimethylcarbamate]",> 6.60
15,"Cc1c[nH]c2ncnc(N3CCC(CNC(=O)C4(NC(=O)OC(C)(C)C)CC4)(C(=O)Nc4cccc(OC(=O)N(C)C)c4)CC3)c12 [3-(4-((1-tert-butoxycarbonylaminocyclopropanecarboxamido)methyl)-1-(5-methyl-7H-pyrrolo[2,3-d]pyrimidin-4-yl)piperidine-4-carboxamido)phenyl dimethylcarbamate]",> 6.60
16,"Cc1c[nH]c2ncnc(N3CCC(Cc4ncc[nH]4)(C(=O)Nc4cccc(OC(=O)N(C)C)c4)CC3)c12 [3-(4-((1H-imidazol-2-yl)methyl)-1-(5-methyl-7H-pyrrolo[2,3-d]pyrimidin-4-yl)piperidine-4-carboxamido)phenyl dimethylcarbamate]",> 6.60
17,"Cc1c[nH]c2ncnc(N3CCC(Cc4nnn[nH]4)(C(=O)Nc4cccc(OC(=O)N(C)C)c4)CC3)c12 [3-(4-((1H-tetrazol-5-yl)methyl)-1-(5-methyl-7H-pyrrolo[2,3-d]pyrimidin-4-yl)piperidine-4-carboxamido)phenyl dimethylcarbamate]",> 6.60
18,"Cc1c[nH]c2ncnc(N3CCC(CNC(=O)CC4NC(=O)NC4=O)(C(=O)Nc4cccc(OC(=O)N(C)C)c4)CC3)c12 (stereo not shown) [3-(4-((2-(2,5-dioxoimidazolidin-4-yl)acetamido)methyl)-1-(5-methyl-7H-pyrrolo[2,3-d]pyrimidin-4-yl)piperidine-4-carboxamido)phenyl dimethylcarbamate]",> 6.60
19,"COCCOCC(=O)NCC1(C(=O)Nc2cccc(OC(=O)N(C)C)c2)CCN(c2ncnc3[nH]cc(C)c23)CC1 [3-(4-((2-(2-methoxyethoxy)acetamido)methyl)-1-(5-methyl-7H-pyrrolo[2,3-d]pyrimidin-4-yl)piperidine-4-carboxamido)phenyl dimethylcarbamate]",> 6.60
20,"Cc1c[nH]c2ncnc(N3CCC(CNC(=O)CN(C)C)(C(=O)Nc4cccc(OC(=O)N(C)C)c4)CC3)c12 [3-(4-((2-(dimethylamino)acetamido)methyl)-1-(5-methyl-7H-pyrrolo[2,3-d]pyrimidin-4-yl)piperidine-4-carboxamido)phenyl dimethylcarbamate]",> 6.60
21,"Cc1c[nH]c2ncnc(N3CCC(CNC(=O)CN)(C(=O)Nc4cccc(OC(=O)N(C)C)c4)CC3)c12 [3-(4-((2-aminoacetamido)methyl)-1-(5-methyl-7H-pyrrolo[2,3-d]pyrimidin-4-yl)piperidine-4-carboxamido)phenyl dimethylcarbamate]",> 6.60
22,"COCC(=O)NCC1(C(=O)Nc2cccc(OC(=O)N(C)C)c2)CCN(c2ncnc3[nH]cc(C)c23)CC1 [3-(4-((2-methoxyacetamido)methyl)-1-(5-methyl-7H-pyrrolo[2,3-d]pyrimidin-4-yl)piperidine-4-carboxamido)phenyl dimethylcarbamate]",> 6.60
23,"Cc1c[nH]c2ncnc(N3CCC(CNC(=O)C(C)(CO)CO)(C(=O)Nc4cccc(OC(=O)N(C)C)c4)CC3)c12 [3-(4-((3-hydroxy-2-(hydroxymethyl)-2-methylpropanamido)methyl)-1-(5-methyl-7H-pyrrolo[2,3-d]pyrimidin-4-yl)piperidine-4-carboxamido)phenyl dimethylcarbamate]",> 6.60
24,"COCCC(=O)NCC1(C(=O)Nc2cccc(OC(=O)N(C)C)c2)CCN(c2ncnc3[nH]cc(C)c23)CC1 [3-(4-((3-methoxypropanamido)methyl)-1-(5-methyl-7H-pyrrolo[2,3-d]pyrimidin-4-yl)piperidine-4-carboxamido)phenyl dimethylcarbamate]",> 6.60
25,"Cc1cc(C(=O)NCC2(C(=O)Nc3cccc(OC(=O)N(C)C)c3)CCN(c3ncnc4[nH]cc(C)c34)CC2)n[nH]1 [3-(4-((5-methyl-1H-pyrazole-3-carboxamido)methyl)-1-(5-methyl-7H-pyrrolo[2,3-d]pyrimidin-4-yl)piperidine-4-carboxamido)phenyl dimethylcarbamate]",> 6.60
26,"Cc1c[nH]c2ncnc(N3CCC(CNS(=O)(=O)N(C)C)(C(=O)Nc4cccc(OC(=O)N(C)C)c4)CC3)c12 [3-(4-((N,N-dimethylsulfamoylamino)methyl)-1-(5-methyl-7H-pyrrolo[2,3-d]pyrimidin-4-yl)piperidine-4-carboxamido)phenyl dimethylcarbamate]",> 6.60
27,"Cc1c[nH]c2ncnc(N3CCC(Cc4nnnn4Cc4ccccc4)(C(=O)Nc4cccc(OC(=O)N(C)C)c4)CC3)c12 [3-(4-((l-benzyl-1H-tetrazol-5-yl)methyl)-1-(5-methyl-7H-pyrrolo[2,3-d]pyrimidin-4-yl)piperidine-4-carboxamido)phenyl dimethylcarbamate]",> 6.60
28,"COC(=O)NCC1(C(=O)Nc2cccc(OC(=O)N(C)C)c2)CCN(c2ncnc3[nH]cc(C)c23)CC1 [3-(4-((methoxycarbonylaminomethyl)-1-(5-methyl-7H-pyrrolo[2,3-d]pyrimidin-4-yl)piperidine-4-carboxamido)phenyl dimethylcarbamate]",> 6.60
